Measurements as given in patent US11926616B2, “Aminopyrazine diol compounds as PI3K-γ inhibitors” (Incyte Corporation, priority 2018, dated 2024).
Read-outs that look alike come from different tables or passages of the source.

Columns and labels:
[1] = target: PI3Kγ (p110γ) Recombinant Human Protein (Homo sapiens (Human), UniProt P48736); experiment: PI3K-γ Scintillation Proximity Assay; type: biochemical; settings: 20 μM PIP2, 2 μM ATP, 13 nM PI3Kγ, 120 min, room temperature
Description: Example B. PI3K-γ Scintillation Proximity Assay Materials: [γ-^33P]ATP (10 mCi/mL) and Wheat Germ Agglutinin (WGA) YSi SPA Scintillation Beads was purchased from Perkin Elmer (Waltham, MA). Lipid kinase substrate, D-myo-Phosphatidylinositol 4,5-bisphosphate (PtdIns(4,5)P2)D (+)-sn-1,2-di-O-octanoylglyceryl, 3-O-phospho linked (PIP2), CAS 204858-53-7, was purchased from Echelon Biosciences (Salt Lake City, UT). PI3Kγ (p110γ) Recombinant Human Protein was purchased from Life technology (Grand Island, NY). ATP, MgCl2, DTT, EDTA, MOPS and CHAPS were purchased from Sigma Aldrich (St. Louis, MO). The kinase reaction was conducted in polystyrene 384-well Greiner Bio-one white plate from Thermo Fisher Scientific in a final volume of 25 μL. Inhibitors were first diluted serially in DMSO and added to the plate wells before the addition of other reaction components. The final concentration of DMSO in the assay was 2%. The PI3Kγ assay was carried out at room temperature in 20 mM MOPS, pH 6.7, 10 mM MgCl2, 5 mM DTT and CHAPS 0.03%. Reactions were initiated by the addition of ATP, the final reaction mixture consisted of 20 μM PIP2, 2 μM ATP, 0.5 μCi [γ-^33P] ATP, 13 nM PI3Kγ. Reactions were incubated for 120 min and terminated by the addition of 40 μL SPA beads suspended in quench buffer: 163 mM potassium phosphate pH 7.8, 20% glycerol, 25 mM EDTA. The final concentration of SPA beads is 1.0 mg/mL. After the plate sealing, plates were shaken overnight at room temperature and centrifuged at 1500 rpm for 10 min, the radioactivity of the product was determined by scintillation counting on Topcount (Perkin-Elmer). IC50 determination was performed by fitting the curve of percent of the solvent control activity versus the log of the inhibitor concentration using the GraphPad Prism 6.0 software.

[2] = target: PI3Kδ (p110δ/p85α) Recombinant Human Protein (Homo sapiens (Human), UniProt O00329); experiment: PI3Kδ Scintillation Proximity Assay; type: biochemical; settings: 20 μM PIP2, 2 μM ATP, 3.4 nM PI3Kδ, 120 min, room temperature
Sequence of PI3Kδ (p110δ/p85α) Recombinant Human Protein (O00329 whole entry): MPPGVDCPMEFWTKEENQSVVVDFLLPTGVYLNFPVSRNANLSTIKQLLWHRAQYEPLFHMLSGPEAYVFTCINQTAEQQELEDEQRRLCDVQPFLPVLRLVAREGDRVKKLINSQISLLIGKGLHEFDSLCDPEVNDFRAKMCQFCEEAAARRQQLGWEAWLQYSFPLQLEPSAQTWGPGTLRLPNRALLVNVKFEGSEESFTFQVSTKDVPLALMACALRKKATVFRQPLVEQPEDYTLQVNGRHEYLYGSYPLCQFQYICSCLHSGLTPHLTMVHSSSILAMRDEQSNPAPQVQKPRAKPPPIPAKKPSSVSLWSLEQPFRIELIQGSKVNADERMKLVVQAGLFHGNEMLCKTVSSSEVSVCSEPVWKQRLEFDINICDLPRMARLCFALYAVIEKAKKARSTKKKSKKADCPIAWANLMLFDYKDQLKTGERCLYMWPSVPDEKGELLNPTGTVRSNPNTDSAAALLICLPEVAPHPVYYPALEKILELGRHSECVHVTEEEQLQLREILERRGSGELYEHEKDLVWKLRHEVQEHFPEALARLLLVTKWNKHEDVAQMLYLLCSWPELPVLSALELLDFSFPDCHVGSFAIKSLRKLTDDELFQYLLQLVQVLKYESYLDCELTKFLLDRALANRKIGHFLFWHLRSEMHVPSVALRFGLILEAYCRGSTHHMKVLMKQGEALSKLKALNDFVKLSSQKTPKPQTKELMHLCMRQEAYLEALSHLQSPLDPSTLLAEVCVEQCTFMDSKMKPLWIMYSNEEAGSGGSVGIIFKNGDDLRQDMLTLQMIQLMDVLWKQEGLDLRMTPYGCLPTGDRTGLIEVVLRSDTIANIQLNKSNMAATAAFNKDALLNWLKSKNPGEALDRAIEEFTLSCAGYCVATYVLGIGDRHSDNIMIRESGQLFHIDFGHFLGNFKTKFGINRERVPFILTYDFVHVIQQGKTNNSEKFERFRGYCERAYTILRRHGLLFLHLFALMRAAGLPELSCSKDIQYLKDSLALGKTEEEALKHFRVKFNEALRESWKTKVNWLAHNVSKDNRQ
Sequence of PI3Kδ (p110δ/p85α) Recombinant Human Protein (P27986 whole entry partner): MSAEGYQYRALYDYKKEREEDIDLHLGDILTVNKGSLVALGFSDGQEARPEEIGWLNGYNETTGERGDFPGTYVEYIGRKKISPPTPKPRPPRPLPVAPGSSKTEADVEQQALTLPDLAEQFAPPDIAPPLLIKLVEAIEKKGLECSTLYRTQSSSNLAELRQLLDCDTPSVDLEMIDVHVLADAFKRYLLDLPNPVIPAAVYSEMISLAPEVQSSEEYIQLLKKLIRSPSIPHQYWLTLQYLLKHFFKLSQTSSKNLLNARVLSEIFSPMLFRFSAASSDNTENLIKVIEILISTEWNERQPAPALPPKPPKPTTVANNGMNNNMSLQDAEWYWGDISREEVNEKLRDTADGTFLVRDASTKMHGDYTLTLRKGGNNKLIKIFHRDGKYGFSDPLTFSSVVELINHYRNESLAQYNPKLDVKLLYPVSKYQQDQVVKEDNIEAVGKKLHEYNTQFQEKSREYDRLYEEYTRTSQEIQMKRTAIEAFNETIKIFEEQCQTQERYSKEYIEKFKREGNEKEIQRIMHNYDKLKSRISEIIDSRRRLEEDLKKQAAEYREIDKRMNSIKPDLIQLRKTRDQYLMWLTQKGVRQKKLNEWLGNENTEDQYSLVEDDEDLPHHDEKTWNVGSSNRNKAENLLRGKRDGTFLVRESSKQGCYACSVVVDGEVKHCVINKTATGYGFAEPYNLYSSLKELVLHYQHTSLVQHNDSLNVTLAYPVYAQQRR
Description: Example C. PI3Kδ Scintillation Proximity Assay Materials: [γ-^33P]ATP (10 mCi/mL) and Wheat Germ Agglutinin (WGA) YSi SPA Scintillation Beads was purchased from Perkin Elmer (Waltham, MA). Lipid kinase substrate, D-myo-Phosphatidylinositol 4,5-bisphosphate (PtdIns(4,5)P2)D (+)-sn-1,2-di-O-octanoylglyceryl, 3-O-phospho linked (PIP2), CAS 204858-53-7, was purchased from Echelon Biosciences (Salt Lake City, UT). PI3Kδ (p110δ/p85α) Recombinant Human Protein was purchased from Eurofins (St Charles, MO). ATP, MgCl2, DTT, EDTA, MOPS and CHAPS were purchased from Sigma Aldrich (St. Louis, MO). The kinase reaction was conducted in polystyrene 384-well Greiner Bio-one white plate from Thermo Fisher Scientific in a final volume of 25 μL. Inhibitors were first diluted serially in DMSO and added to the plate wells before the addition of other reaction components. The final concentration of DMSO in the assay was 2%. The PI3Kδ assay was carried out at room temperature in 20 mM MOPS, pH 6.7, 10 mM MgCl2, 5 mM DTT and CHAPS 0.03%. Reactions were initiated by the addition of ATP, the final reaction mixture consisted of 20 μM PIP2, 2 μM ATP, […] [γ-^33P] ATP, 3.4 nM PI3Kδ. Reactions were incubated for 120 min and terminated by the addition of 40 μL SPA beads suspended in quench buffer: 163 mM potassium phosphate pH 7.8, 20% glycerol, 25 mM EDTA. The final concentration of SPA beads is 1.0 mg/mL. After the plate sealing, plates were shaken overnight at room temperature and centrifuged at 1500 rpm for 10 min, the radioactivity of the product was determined by scintillation counting on Topcount (PerkinElmer). IC50 determination was performed by fitting the curve of percent of the solvent control activity versus the log of the inhibitor concentration using the GraphPad Prism 6.0 software.

[3] = system: Phosphorylated Ribosomal Protein S6 (RPS6) in THP-1 cells; experiment: THP-1 RPS6 ELISA Assay; type: cell-based, Human; settings: THP-1 cells, serum starved, 2 hours compound, 10 nM MCP-1 for 15 minutes, Phospho-RPS6 ELISA, read-out: PI3Kγ_THP1_RPS6_ELISA IC50
Method: Example A. THP-1 RPS6 ELISA Assay
To measure the Phosphorylated Ribosomal Protein S6 (RPS6) in cell lysates, THP-1 cells (Human Acute Monocytic Leukemia) are purchased from ATCC (Manassas, VA) and maintained in RPMI with 10% FBS (Gibco/Life Technologies, Carlsbad, CA). For the assay, THP-1 cells are serum starved overnight in RPMI, then plated in RPMI (2×10^5 cells/well in 90 μL) into 96-well flat-bottom tissue culture treated plates (Corning, Corning, NY), in the presence or absence of a concentration range of test compounds. Covered plates are incubated for 2 hours at 37° C., 5% CO2 then treated with or without 10 nM MCP-1(MYBioSource, San Diego, CA) for 15 minutes at 37° C., 5% CO2. Plates are centrifuged at 1600 RPM and supernatants are removed. Cells are lysed in Lysis Buffer (Cell Signaling, Danvers, MA) with Protease Inhibitor (Calbiochem/EMD, Germany), PMSF (Sigma, St Louis MO), HALTS (Thermo Fisher, Rockford, IL) for 30 min on wet ice. Cell lysates are frozen at −80° C. before testing. The lysates are tested in the Human/Mouse/Rat Phospho-RPS6 ELISA (R&D Systems, Inc. Minn, MN). The plate is measured using a microplate reader (SpectraMax M5—Molecular Devices, LLC Sunnyvale, CA) set to 450 nm with a wavelength correction of 540. IC50 determination is performed by fitting the curve of inhibitor percent inhibition versus the log of the inhibitor concentration using the GraphPad Prism 5.0 software.

Sequence of PI3Kγ (p110γ) Recombinant Human Protein (P48736 whole entry): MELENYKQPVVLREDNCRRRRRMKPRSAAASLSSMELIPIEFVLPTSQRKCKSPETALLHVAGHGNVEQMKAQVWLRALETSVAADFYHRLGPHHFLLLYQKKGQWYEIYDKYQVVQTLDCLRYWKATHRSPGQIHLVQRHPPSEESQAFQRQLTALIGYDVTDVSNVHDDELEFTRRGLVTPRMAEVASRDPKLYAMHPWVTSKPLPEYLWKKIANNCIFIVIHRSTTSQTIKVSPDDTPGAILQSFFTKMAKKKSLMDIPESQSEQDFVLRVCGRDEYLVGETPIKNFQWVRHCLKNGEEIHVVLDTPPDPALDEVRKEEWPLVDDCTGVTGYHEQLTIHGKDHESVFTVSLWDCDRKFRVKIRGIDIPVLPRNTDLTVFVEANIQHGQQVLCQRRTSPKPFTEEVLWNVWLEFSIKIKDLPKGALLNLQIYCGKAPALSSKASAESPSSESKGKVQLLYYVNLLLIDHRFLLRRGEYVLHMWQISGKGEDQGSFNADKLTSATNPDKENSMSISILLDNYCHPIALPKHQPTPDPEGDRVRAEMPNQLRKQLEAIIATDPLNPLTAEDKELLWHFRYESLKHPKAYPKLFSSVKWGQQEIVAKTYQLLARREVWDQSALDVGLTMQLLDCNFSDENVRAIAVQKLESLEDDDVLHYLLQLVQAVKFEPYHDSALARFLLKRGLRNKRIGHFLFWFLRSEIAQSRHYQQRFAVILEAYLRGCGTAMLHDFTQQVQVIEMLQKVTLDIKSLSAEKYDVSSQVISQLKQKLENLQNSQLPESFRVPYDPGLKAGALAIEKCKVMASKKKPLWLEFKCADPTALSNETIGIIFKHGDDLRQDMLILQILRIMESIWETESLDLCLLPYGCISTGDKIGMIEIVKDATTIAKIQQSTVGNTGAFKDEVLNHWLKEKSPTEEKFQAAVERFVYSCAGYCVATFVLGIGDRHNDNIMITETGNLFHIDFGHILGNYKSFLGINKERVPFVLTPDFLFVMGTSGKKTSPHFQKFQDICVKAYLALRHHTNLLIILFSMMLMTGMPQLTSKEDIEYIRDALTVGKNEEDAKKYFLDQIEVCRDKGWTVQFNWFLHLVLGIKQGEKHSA

| Compound | IC50 [1] [nM] | IC50 [2] [nM] | IC50 ([3]; Homo sapiens) [nM] | IC50 [3] [nM] |
| --- | --- | --- | --- | --- |
| [2H]C([2H])([2H])c1ccc(C(O)(CO)C(F)F)cc1-c1cnc(N)c(C(=O)NC23CCC(O)(CC2)C3)n1 (single isomer, unassigned) [Example 18, 3-Amino-6-(5-(1,1-difluoro-2,3-dihydroxypropan-2-yl)-2-(methyl-d3)phenyl)-N-(4-hydroxybicyclo[2.2.1]heptan-1-yl)pyrazine-2-carboxamide] | ≤ 100 | ≤ 100 | < 100 | – |
| Cc1ccc(C(O)(CO)C(F)(F)F)cc1-c1cnc(N)c(-n2cccn2)n1 (single isomer, unassigned) [Example 12, 2-(3-(5-Amino-6-(1H-pyrazol-1-yl)pyrazin-2-yl)-4-methylphenyl)-3,3,3-trifluoropropane-1,2-diol] | ≤ 100 | ≤ 100 | < 100 | – |
| [2H]C([2H])([2H])c1ccc(C(O)(CO)C(F)(F)F)cc1-c1cnc(N)c(-c2cnc(C)o2)n1 (single isomer, unassigned) [Example 16, 2-(3-(5-Amino-6-(2-methyloxazol-5-yl)pyrazin-2-yl)-4-(methyl-d3)phenyl)-3,3,3-trifluoropropane-1,2-diol] | ≤ 100 | ≤ 100 | < 100 | – |
| [2H]C([2H])([2H])c1ccc(C(O)(C(C)O)C(F)(F)F)cc1-c1cnc(N)c(C(=O)NC2CCOCC2)n1 (single isomer, unassigned) [Example 19, 3-Amino-6-(2-(methyl-d3)-5-(1,1,1-trifluoro-2,3-dihydroxybutan-2-yl)phenyl)-N-(tetrahydro-2H-pyran-4-yl)pyrazine-2-carboxamide] | ≤ 100 | ≤ 500 | < 500 | – |
| Cc1ccc(C(O)(CO)C(F)F)cc1-c1cnc(N)c(C(=O)NC23CCC(C#N)(C2)C3)n1 (single isomer, unassigned) [Example 48, 3-Amino-N-(4-cyanobicyclo[2.1.1]hexan-1-yl)-6-(5-(1,1-difluoro-2,3-dihydroxypropan-2-yl)-2-methylphenyl)pyrazine-2-carboxamide] | ≤ 100 | ≤ 100 | < 100 | – |
| Cc1ccc(C(O)(CO)C(F)(F)F)cc1-c1cnc(N)c(C2CC(C(=O)N3CC(O)C3)C2)n1 (single isomer, unassigned) [Example 24, (3-(3-Amino-6-(2-methyl-5-(1,1,1-trifluoro-2,3-dihydroxypropan-2-yl)phenyl)pyrazin-2-yl)cyclobutyl)(3-hydroxyazetidin-1-yl)methanone] | ≤ 100 | ≤ 500 | < 500 | – |
| [2H]C([2H])([2H])c1ccc(C(O)(CO)C(F)(F)F)cc1-c1cnc(N)c(C(=O)N[C@]2(C)C[C@H](O)C2)n1 (single isomer, unassigned) [Example 30] | ≤ 100 | ≤ 100 | < 100 | – |
| Cc1ncc(-c2nc(-c3cc(C(O)(CO)C(F)(F)F)ccc3C)cnc2N)o1 (single isomer, unassigned) [Example 9, 2-(3-(5-Amino-6-(2-methyloxazol-5-yl)pyrazin-2-yl)-4-methylphenyl)-3,3,3-trifluoropropane-1,2-diol] | ≤ 100 | ≤ 100 | < 100 | – |
| [2H]C([2H])([2H])c1ccc(C(O)(C(O)C(F)(F)F)C(F)(F)F)cc1-c1cnc(N)c(-c2c[nH]nc2C)n1 (stereo not drawn) [Example 21, 2-(3-(5-Amino-6-(3-methyl-1H-pyrazol-4-yl)pyrazin-2-yl)-4-(methyl-d3)phenyl)-1,1,1,4,4,4-hexafluorobutane-2,3-diol] | ≤ 100 | ≤ 100 | < 100 | – |
| [2H]C([2H])([2H])c1ccc(C(O)(CO)C(F)(F)F)cc1-c1cnc(N)c(C(=O)N[C@H]2CCCC[C@@H]2O)n1 (single isomer, unassigned) [Example 27] | ≤ 100 | ≤ 500 | < 100 | – |
| Cc1ccc(C(O)(CO)C(F)(F)F)cc1-c1cnc(N)c(C2CN(S(=O)(=O)c3ccn(C)n3)C2)n1 (stereo not drawn) [Example 23, 2-(3-(5-Amino-6-(1-((1-methyl-1H-pyrazol-3-yl)sulfonyl)azetidin-3-yl)pyrazin-2-yl)-4-methylphenyl)-3,3,3-trifluoropropane-1,2-diol] | ≤ 100 | ≤ 500 | < 500 | – |
| [2H]C([2H])([2H])c1ccc(C(O)(CO)C(F)F)cc1-c1cnc(N)c(C(=O)N[C@H]2CCCC[C@@H]2O)n1 (single isomer, unassigned) [Example 38] | ≤ 100 | < 2000 | < 500 | – |
| Cc1ccc([C@](O)(CO)C(F)F)cc1-c1cnc(N)c(C(=O)N2CCC[C@@H]2CO)n1 [Example 45, (3-Amino-6-(5-((S)-1,1-difluoro-2,3-dihydroxypropan-2-yl)-2-methylphenyl)pyrazin-2-yl)((R)-2-(hydroxymethyl)pyrrolidin-1-yl)methanone] | ≤ 100 | < 2000 | – | < 500 |
| [2H]C([2H])([2H])c1ccc(C(O)(CO)C(F)F)cc1-c1cnc(N)c(C(=O)NC23CCC(C#N)(C2)C3)n1 (single isomer, unassigned) [Example 40] | ≤ 100 | ≤ 100 | < 100 | – |
| [2H]C([2H])([2H])c1ccc(C(O)(CO)C(F)(F)F)cc1-c1cnc(N)c(C(=O)NC23CCC(O)(C2)C3)n1 (single isomer, unassigned) [Example 37] | ≤ 100 | ≤ 100 | < 100 | – |
| Cc1ccc(C(O)(CO)C(F)F)cc1-c1cnc(N)c(C(=O)NC2CCOCC2)n1 (single isomer, unassigned) [Example 42] | ≤ 100 | ≤ 100 | < 100 | – |
